Reference: ChEMBL document CHEMBL5649165, “The E3 ligase Cbl-b and TAM receptors regulate cancer metastasis via natural killer cells” (Nature, 2014)
Calls of active or inactive are those of the source. The calls are words filed in the database; no cut-off is given here.

How the values were obtained:
[1] = biological target: T1, Dual specificity mitogen-activated protein kinase kinase 5 (Homo sapiens, UniProt Q13163); assay: biochemical
T1 sequence (Q13163 whole entry): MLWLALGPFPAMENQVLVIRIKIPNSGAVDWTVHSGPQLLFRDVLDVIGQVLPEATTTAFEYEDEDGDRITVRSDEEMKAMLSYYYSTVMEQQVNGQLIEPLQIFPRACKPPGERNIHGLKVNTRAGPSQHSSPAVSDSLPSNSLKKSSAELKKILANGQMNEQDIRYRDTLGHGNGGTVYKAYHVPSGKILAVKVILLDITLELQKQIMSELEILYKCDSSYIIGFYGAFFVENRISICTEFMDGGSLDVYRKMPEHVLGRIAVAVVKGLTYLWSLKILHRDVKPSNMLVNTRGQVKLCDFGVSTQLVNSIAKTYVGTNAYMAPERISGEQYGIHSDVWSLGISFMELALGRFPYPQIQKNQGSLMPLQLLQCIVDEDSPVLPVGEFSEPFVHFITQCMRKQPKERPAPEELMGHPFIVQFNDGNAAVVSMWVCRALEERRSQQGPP

[2] = biological target: T2, Proto-oncogene tyrosine-protein kinase Src (Homo sapiens, UniProt P12931); assay: biochemical
[3] = biological target: Cyclin-dependent kinase 8 (Homo sapiens, UniProt P49336)
[4] = biological target: Tyrosine-protein kinase Fer (Homo sapiens, UniProt P16591); assay: biochemical
[5] = biological target: Aurora kinase B (Homo sapiens, UniProt Q96GD4)
[6] = biological target: T3, Tyrosine-protein kinase Mer (Homo sapiens, UniProt Q12866)
T3 sequence (Q12866 whole entry): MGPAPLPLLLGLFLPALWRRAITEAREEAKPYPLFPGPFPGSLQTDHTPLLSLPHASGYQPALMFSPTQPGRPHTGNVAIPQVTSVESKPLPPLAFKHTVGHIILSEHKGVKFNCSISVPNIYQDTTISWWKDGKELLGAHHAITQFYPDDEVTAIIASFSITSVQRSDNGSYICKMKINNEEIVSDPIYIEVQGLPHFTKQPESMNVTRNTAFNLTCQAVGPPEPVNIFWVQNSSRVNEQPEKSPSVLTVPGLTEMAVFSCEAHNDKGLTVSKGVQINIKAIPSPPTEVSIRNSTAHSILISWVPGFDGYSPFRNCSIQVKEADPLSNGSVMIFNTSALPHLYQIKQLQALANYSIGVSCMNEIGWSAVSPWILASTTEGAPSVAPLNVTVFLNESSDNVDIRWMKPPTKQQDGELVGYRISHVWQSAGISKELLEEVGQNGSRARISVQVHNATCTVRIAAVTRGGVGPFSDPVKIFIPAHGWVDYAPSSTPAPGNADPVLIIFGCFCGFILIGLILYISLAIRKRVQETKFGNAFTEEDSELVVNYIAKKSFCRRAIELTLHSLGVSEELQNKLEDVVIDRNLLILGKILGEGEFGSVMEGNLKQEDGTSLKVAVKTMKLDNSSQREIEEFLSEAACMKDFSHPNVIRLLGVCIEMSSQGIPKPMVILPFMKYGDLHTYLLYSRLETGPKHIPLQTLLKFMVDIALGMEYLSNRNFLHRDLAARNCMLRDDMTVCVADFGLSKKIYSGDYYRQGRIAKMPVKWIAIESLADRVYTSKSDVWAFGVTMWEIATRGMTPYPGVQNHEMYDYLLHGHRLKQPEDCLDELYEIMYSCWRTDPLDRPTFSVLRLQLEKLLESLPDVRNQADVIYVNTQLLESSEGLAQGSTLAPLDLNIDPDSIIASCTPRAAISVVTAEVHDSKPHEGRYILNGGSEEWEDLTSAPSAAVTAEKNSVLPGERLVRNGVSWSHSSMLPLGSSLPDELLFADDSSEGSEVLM

[7] = biological target: Tyrosine-protein kinase Lck (Homo sapiens, UniProt P06239)
[8] = biological target: T2, Proto-oncogene tyrosine-protein kinase Src
[9] = biological target: Hepatocyte growth factor receptor (Homo sapiens, UniProt P08581)
[10] = biological target: Tyrosine-protein kinase ABL1 (Homo sapiens, UniProt P00519); assay: biochemical
[11] = system: 4T1; assay: Anticoagulant activity against mouse 4T1 cells xenografted in Balb/c mouse assessed as prothrombin time at 0.5 mg/L, po administered for 16 days by coagulometer analysis (reference value: 15.10 +/- 1.46 sec); type: functional; conditions: time 16 day
[12] = system: B16-F10; assay: Antitumor activity against mouse B16-F10 cells xenografted in Cbl-b+/+ mouse assessed as reduction in melanoma metastases in lungs at 0.5 mg/L, po administered for 16 days by haematoxylin and eosin staining based microscope analysis; type: functional, organism-based; conditions: time 16.0 day
[13] = system: B16-F10; assay: Antitumor activity against mouse B16-F10 cells xenografted in Cbl-b defective mouse assessed as reduction in melanoma metastases at 0.5 mg/L, po administered for 16 days by haematoxylin and eosin staining based microscope analysis; type: functional, organism-based; conditions: time 16.0 day
[14] = system: RMA-S; assay: Cytotoxicity against RMA-S cells overexpressing Rae1 in Cbl-b+/+ mouse by flow cytometry analysis; type: functional, cell-based
[15] = system: B16-F10; assay: Antitumor activity against mouse B16-F10 cells xenografted in Cbl-b+/- mouse assessed as coagulation at 0.5 mg/L, po administered for 16 days by coagulometer analysis; type: functional, organism-based; conditions: time 16.0 day
[16] = system: B16-F10; assay: Antitumor activity against mouse B16-F10 cells xenografted in Cbl-b+/+ mouse assessed as coagulation at 0.5 mg/L, po administered for 16 days by coagulometer analysis; type: functional, organism-based; conditions: time 16.0 day
[17] = system: B16-F10; assay: Antitumor activity against mouse B16-F10 cells xenografted in Cbl-b+/- mouse assessed as reduction in melanoma metastases in lungs at 0.5 mg/L, po administered for 16 days by haematoxylin and eosin staining based microscope analysis; type: functional, organism-based; conditions: time 16.0 day
[18] = system: RMA-S; assay: Cytotoxicity against RMA-S cells in Cbl-b+/+ mouse by flow cytometry analysis; type: functional, cell-based

T2 sequence (P12931 whole entry, looked up): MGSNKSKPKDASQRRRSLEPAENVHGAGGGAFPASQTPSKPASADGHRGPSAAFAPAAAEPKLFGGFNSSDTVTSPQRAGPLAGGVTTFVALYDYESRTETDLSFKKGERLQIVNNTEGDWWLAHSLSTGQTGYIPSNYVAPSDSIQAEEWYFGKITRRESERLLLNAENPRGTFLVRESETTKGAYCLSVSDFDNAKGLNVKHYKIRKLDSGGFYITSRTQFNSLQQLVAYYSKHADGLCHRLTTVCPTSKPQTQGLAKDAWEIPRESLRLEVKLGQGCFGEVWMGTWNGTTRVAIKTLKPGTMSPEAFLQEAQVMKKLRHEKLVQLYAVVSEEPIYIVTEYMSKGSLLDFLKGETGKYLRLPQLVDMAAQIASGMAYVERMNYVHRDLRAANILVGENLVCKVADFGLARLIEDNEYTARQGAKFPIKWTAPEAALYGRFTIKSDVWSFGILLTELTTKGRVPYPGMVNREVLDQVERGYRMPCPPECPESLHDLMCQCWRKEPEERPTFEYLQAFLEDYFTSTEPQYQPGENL
Hepatocyte growth factor receptor, sequence (P08581 whole entry): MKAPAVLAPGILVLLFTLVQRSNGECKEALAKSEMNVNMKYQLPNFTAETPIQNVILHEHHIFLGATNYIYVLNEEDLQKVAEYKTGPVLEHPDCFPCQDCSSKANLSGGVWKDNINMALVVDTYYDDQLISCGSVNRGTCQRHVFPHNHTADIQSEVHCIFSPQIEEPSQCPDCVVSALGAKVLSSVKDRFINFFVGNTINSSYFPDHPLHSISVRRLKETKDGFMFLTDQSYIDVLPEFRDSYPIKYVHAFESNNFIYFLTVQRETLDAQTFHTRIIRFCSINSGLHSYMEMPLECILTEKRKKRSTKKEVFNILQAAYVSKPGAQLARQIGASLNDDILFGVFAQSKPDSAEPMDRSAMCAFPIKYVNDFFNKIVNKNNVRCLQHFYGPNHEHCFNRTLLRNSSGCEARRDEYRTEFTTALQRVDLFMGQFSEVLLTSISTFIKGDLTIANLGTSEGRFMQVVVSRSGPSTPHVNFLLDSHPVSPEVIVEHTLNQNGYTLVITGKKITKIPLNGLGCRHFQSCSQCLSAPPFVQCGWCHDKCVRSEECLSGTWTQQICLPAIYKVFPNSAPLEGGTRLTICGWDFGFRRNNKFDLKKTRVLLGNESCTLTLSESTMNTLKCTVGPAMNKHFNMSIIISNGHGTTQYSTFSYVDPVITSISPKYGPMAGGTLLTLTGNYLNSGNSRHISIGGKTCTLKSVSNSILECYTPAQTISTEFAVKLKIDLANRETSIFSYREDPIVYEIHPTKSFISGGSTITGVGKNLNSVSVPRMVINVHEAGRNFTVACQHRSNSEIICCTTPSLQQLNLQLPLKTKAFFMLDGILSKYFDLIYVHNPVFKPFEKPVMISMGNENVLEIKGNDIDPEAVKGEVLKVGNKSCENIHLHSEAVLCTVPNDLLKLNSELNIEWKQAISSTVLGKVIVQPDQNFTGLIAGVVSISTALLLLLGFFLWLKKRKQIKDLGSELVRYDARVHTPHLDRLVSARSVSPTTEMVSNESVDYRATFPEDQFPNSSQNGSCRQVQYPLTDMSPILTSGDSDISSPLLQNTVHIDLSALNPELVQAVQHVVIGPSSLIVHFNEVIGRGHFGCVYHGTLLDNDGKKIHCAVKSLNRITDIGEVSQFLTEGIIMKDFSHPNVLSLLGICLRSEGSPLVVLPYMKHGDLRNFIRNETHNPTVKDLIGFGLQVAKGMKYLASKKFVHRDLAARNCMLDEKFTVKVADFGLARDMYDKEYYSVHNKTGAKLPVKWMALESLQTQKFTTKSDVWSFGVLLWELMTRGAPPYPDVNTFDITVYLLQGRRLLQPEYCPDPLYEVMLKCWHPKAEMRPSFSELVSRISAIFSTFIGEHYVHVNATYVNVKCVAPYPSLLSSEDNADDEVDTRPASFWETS
Tyrosine-protein kinase ABL1, sequence (P00519 whole entry): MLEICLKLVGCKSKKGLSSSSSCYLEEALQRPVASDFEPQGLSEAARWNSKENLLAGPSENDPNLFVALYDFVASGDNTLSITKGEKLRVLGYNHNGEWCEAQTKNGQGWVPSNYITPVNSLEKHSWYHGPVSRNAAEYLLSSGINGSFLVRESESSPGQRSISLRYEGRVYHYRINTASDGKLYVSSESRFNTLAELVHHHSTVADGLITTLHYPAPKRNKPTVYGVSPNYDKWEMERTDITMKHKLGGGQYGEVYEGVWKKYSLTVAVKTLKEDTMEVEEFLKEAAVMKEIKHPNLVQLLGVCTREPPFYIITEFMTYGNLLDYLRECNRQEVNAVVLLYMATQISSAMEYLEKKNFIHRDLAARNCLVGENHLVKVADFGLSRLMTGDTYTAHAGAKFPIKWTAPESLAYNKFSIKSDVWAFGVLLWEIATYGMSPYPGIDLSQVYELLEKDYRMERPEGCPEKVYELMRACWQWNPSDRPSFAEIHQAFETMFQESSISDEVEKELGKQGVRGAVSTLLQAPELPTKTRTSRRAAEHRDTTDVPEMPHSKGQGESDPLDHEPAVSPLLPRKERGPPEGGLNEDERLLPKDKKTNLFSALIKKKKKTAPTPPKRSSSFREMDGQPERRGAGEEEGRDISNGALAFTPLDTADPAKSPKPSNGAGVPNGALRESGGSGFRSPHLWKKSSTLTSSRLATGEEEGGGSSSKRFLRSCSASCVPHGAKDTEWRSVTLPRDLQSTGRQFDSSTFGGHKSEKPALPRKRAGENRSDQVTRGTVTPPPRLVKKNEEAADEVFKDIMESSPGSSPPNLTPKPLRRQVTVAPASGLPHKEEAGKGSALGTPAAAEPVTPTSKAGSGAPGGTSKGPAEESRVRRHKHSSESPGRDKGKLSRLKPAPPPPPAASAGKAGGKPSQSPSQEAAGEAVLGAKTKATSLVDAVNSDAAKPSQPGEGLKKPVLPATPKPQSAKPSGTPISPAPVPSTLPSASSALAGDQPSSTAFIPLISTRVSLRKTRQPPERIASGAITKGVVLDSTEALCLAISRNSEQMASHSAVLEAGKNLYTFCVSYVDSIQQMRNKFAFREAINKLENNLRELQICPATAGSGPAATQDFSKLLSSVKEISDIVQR
Aurora kinase B, sequence (Q96GD4 whole entry): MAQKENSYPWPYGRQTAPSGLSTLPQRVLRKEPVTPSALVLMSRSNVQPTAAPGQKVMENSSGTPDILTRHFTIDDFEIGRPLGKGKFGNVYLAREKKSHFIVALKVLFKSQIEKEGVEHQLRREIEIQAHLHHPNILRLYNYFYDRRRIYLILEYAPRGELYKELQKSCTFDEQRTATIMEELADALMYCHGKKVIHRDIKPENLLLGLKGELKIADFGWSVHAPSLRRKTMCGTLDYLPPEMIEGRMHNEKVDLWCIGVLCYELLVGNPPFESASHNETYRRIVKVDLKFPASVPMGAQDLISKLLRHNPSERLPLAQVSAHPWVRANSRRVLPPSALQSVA
Tyrosine-protein kinase Lck, sequence (P06239 whole entry): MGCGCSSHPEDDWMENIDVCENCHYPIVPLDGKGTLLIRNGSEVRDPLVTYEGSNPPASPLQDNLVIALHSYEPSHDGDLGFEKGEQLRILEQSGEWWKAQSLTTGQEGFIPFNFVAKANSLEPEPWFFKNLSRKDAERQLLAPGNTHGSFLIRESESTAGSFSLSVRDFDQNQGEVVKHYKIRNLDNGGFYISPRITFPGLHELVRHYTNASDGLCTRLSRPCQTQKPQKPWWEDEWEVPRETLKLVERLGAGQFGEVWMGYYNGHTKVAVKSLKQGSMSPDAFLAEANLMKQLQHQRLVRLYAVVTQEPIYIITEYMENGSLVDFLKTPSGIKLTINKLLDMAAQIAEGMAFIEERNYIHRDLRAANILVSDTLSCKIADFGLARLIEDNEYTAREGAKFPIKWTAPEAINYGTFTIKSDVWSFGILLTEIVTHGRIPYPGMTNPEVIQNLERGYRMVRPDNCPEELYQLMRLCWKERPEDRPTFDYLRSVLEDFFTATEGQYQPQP
Tyrosine-protein kinase Fer, sequence (P16591 whole entry): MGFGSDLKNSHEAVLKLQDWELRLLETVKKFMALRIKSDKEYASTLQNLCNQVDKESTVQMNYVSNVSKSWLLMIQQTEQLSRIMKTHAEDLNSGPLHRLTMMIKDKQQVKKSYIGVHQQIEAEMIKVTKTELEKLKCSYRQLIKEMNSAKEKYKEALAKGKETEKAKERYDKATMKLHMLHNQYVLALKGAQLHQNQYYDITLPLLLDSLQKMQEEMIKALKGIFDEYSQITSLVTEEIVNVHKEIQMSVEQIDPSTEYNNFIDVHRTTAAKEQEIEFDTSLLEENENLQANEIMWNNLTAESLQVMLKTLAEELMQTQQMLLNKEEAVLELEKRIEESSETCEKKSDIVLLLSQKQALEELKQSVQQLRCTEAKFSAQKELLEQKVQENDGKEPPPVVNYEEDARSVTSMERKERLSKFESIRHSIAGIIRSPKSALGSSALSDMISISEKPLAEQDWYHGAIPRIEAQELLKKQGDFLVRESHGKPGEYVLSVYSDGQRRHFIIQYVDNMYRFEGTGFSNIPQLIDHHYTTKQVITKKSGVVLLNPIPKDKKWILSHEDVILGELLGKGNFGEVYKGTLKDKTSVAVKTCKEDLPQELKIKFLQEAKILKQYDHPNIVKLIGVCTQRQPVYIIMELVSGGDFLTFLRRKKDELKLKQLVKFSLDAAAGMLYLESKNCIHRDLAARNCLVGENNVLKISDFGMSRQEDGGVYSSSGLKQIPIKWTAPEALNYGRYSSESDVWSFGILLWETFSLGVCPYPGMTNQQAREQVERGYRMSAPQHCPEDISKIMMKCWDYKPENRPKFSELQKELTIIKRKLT

Structure (SMILES) | Kd [1] [nM] | Kd [2] [nM] | IC50 [3] [nM] | Kd [4] [nM] | IC50 [5] [nM] | IC50 [6] [nM] | IC50 [7] [nM] | IC50 [8] [nM] | IC50 [9] [nM] | Kd [10] [nM] | PT [11] [s] | Activity [12] | Activity [13] | Activity [14] | Activity [15] | Activity [16] | Activity [17] | Activity [18]
CCOc1cn(-c2ccc(F)cc2C)nc1C(=O)Nc1ccc(Oc2ccnc3cc(OC)c(OC)cc23)c(F)c1 | 124 | 217 | 3170 | 107 | 36 | < 5 | 51 | 338 | 35 | 154 |  |  |  |  |  |  |  | 
CC(=O)CC(c1ccccc1)c1c(O)c2ccccc2oc1=O (stereo not drawn) [WARFARIN] |  |  |  |  |  |  |  |  |  |  | 19.13 | Active | inactive | Active | Active | Active | Active | Active
